Source: ChEMBL document CHEMBL5209567, “Membrane potential based assay for SLC2A9 using HEK-293 SLC2A9 OE cells” (2022)

How the values were obtained:
[1] = target: T1, Solute carrier family 2, facilitated glucose transporter member 9 (Homo sapiens, UniProt Q9NRM0); assay: Substrate uptake by the Glucose Transporter Type 9 (GLUT9, SLC2A9) as assessed by the fluorescent FLIPR membrane potential dye in HEK-293 cells stably transfected with SLC2A9 isoform 2 (PubChem AID: 1794831); format: functional, cell-based, HEK293
T1 sequence (Q9NRM0 whole entry): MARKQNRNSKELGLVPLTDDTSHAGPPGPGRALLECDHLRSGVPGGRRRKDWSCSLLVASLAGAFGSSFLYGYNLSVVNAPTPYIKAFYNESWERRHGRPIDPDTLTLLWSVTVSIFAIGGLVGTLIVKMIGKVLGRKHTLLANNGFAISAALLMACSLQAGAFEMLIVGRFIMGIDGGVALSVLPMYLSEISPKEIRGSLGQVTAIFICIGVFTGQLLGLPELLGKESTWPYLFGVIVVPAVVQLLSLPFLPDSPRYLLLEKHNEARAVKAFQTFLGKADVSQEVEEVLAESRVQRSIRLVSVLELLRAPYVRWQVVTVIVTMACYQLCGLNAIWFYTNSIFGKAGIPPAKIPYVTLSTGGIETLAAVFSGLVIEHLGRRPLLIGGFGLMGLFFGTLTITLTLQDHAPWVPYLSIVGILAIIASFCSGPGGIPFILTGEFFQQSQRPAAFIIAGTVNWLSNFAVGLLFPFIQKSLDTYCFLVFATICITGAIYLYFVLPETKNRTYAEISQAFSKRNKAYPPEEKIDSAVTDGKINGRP

[2] = target: T1, Solute carrier family 2, facilitated glucose transporter member 9; assay: Substrate uptake by the Glucose Transporter Type 9 (GLUT9, SLC2A9) as assessed by the fluorescent FLIPR membrane potential dye in HEK-293 cells stably transfected with SLC2A9 isoform 1 (PubChem AID: 1794831); format: functional, cell-based, HEK293

EC50 ([1]; hek293)	EC50 [2] [µM]	EC50 ([1]; read-out: EC50) [µM]	SMILES
Ec50 Cannot Be Calculated For Isoform 2	300		Oc1nc(O)c2nc(O)[nH]c2n1 [URIC ACID]
	1000	1000	O=C(O)c1cc(=O)[nH]c(=O)[nH]1 [OROTIC ACID]
